Assay results reported in US6737383B1, “Herbicidal oxadiazolidines” (priority 1999, dated 2004).

How the values were obtained:
bedstraw = assay: Test B pre/postemergence bedstraw; type: in vivo, Galium aparine
Procedure, shortened: (§1)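 Test chemicals in a non-phytotoxic solvent mixture with surfactant were sprayed preemergence onto planted seeds and postemergence onto plants 2 to 18 cm tall (1- to 4-leaf stage). After twelve to sixteen days in a greenhouse, injury was visually rated against untreated controls from 0 (no effect) to 10 (complete control).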

surinam grass = assay: Test B pre/postemergence surinam grass; type: in vivo, Brachiaria decumbens
Procedure, shortened: as §1

cocklebur = assay: Test B pre/postemergence cocklebur; type: in vivo, Xanthium strumarium
Procedure, shortened: as §1

corn = assay: Test B pre/postemergence corn; type: in vivo, Zea mays
Procedure, shortened: as §1

crabgrass = assay: Test B pre/postemergence crabgrass; type: in vivo, Digitaria sanguinalis
Procedure, shortened: as §1

morningglory = assay: Test B pre/postemergence morningglory; type: in vivo, Ipomoea hederacea
Procedure, shortened: as §1

pigweed = assay: Test B pre/postemergence pigweed; type: in vivo, Amaranthus retroflexus
Procedure, shortened: as §1

rape = assay: Test B pre/postemergence rape; type: in vivo, Brassica napus
Procedure, shortened: as §1

soybean = assay: Test B pre/postemergence soybean; type: in vivo, Glycine max
Procedure, shortened: as §1

sugar beet = assay: Test B pre/postemergence sugar beet; type: in vivo, Beta vulgaris
Procedure, shortened: as §1

velvetleaf = assay: Test B pre/postemergence velvetleaf; type: in vivo, Abutilon theophrasti
Procedure, shortened: as §1

wild oat = assay: Test B pre/postemergence wild oat; type: in vivo, Avena fatua
Procedure, shortened: as §1

rice = assay: Test B flood test rice; type: in vivo, Oryza sativa
Procedure, shortened: (§2)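 Plants were grown to the 2-leaf stage before treatment with test chemical, then held in a greenhouse for twelve to sixteen days. Injury was visually rated against untreated controls on a 0–10 scale, where 0 is no effect and 10 is complete control.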

smallflower flatsedge = assay: Test B flood test smallflower flatsedge; type: in vivo, Cyperus difformis
Procedure, shortened: as §2

duck salad = assay: Test B flood test duck salad; type: in vivo, Heteranthera limosa
Procedure, shortened: as §2

bamyardgrass = assay: Test B flood test barnyardgrass; type: in vivo, Echinochloa crus-galli
Procedure, shortened: as §2

[1] = Postemergence, Rate 62 g/ha, scale 0 to 10, 0 is no effect, 10 is complete control
[2] = Preemergence, Rate 62 g/ha, scale 0 to 10 (0 no effect, 10 complete control)
[3] = Preemergence, Rate 125 g/ha, scale 0 to 10 (0 no effect, 10 complete control)
[4] = Preemergence, Rate 250 g/ha, scale of 0 to 10 where 0 is no effect and 10 is complete control
[5] = Preemergence, Rate 500 g/ha, scale 0 (no effect) to 10 (complete control)
[6] = Postemergence, Rate 250 g/ha, scale 0 to 10, 0 no effect, 10 complete control
[7] = Postemergence, Rate 125 g/ha, scale of 0 to 10 where 0 is no effect and 10 is complete control
[8] = Rate 500 g/ha, Postemergence, scale 0 to 10, 0 no effect, 10 complete control
[9] = Rate 250 g/ha, Postemergence, scale 0 to 10, 0 is no effect, 10 is complete control
[10] = Postemergence (flood test species), Rate 125 g/ha, scale of 0 to 10 where 0 is no effect and 10 is complete control
[11] = Rate 250 g/ha, Postemergence (flood test), scale 0 to 10, 0 is no effect, 10 is complete control
[12] = Rate 500 g/ha, listed under Postemergence (flood test species), scale 0 to 10, 0 no effect, 10 complete control
[13] = flood test, listed under Postemergence, Rate 250 g/ha, scale 0 to 10, 0 no effect, 10 complete control

CC(C)N(C(=O)n1oc(=O)n(-c2cccc3c2CCCC3)c1=O)c1ccc(F)cc1 [Compound 90]
7: Redroot pigweed plant response rating (pigweed; [8])
0: Bedstraw plant response rating (bedstraw; [1]) | Bedstraw plant response rating (bedstraw; [2]) | Plant response rating, Bedstraw (bedstraw; [3]) | Plant response rating, Bedstraw (bedstraw; [4]) | Bedstraw plant response rating (bedstraw; [5]) | B. signalgrass plant response rating (surinam grass; [1]) | B. signalgrass plant response rating (surinam grass; [6]) | B. signalgrass plant response rating (surinam grass; [2]) | Plant response rating, B. signalgrass (surinam grass; [3]) | B. signalgrass plant response rating (surinam grass; Rate 125 g/ha, Postemergence, scale 0 to 10, 0 no effect, 10 complete control) | B. signalgrass plant response rating (surinam grass; Rate 500 g/ha, Postemergence, scale of 0 to 10 where 0 is no effect and 10 is complete control) | Cocklebur plant response rating (cocklebur; [2]) | Plant response rating, Cocklebur (cocklebur; [3]) | Plant response rating, Cocklebur (cocklebur; [4]) | Cocklebur plant response rating (cocklebur; [5]) | Corn plant response rating (corn; [1]) | Corn plant response rating (corn; [7]) | Corn plant response rating (corn; [6]) | Corn plant response rating (corn; [2]) | Plant response rating, Corn (corn; [3]) | Plant response rating, Corn (corn; [4]) | Corn plant response rating (corn; [5]) | Corn plant response rating (corn; [8]) | Crabgrass plant response rating (crabgrass; [2]) | Morningglory plant response rating (morningglory; [2]) | Plant response rating, Morningglory (morningglory; [3]) | Plant response rating, Morningglory (morningglory; [4]) | Morningglory plant response rating (morningglory; [5]) | Redroot pigweed plant response rating (pigweed; [2]) | Plant response rating, Redroot pigweed (pigweed; [3]) | Plant response rating, Redroot pigweed (pigweed; [4]) | Rape plant response rating (rape; [1]) | Rape plant response rating (rape; [7]) | Rape plant response rating (rape; [6]) | Rape plant response rating (rape; [2]) | Plant response rating, Rape (rape; [3]) | Plant response rating, Rape (rape; [4]) | Rape plant response rating (rape; [5]) | Rape plant response rating (rape; [8]) | Soybean plant response rating (soybean; [2]) | Plant response rating, Soybean (soybean; [3]) | Plant response rating, Soybean (soybean; [4]) | Soybean plant response rating (soybean; [5]) | Sugarbeets plant response rating (sugar beet; [1]) | Sugarbeets plant response rating (sugar beet; [7]) | Sugarbeets plant response rating (sugar beet; [2]) | Plant response rating, Sugarbeets (sugar beet; [3]) | Plant response rating, Sugarbeets (sugar beet; [4]) | Sugarbeets plant response rating (sugar beet; [5]) | Velvetleaf plant response rating (velvetleaf; [1]) | Velvetleaf plant response rating (velvetleaf; [7]) | Velvetleaf plant response rating (velvetleaf; [2]) | Plant response rating, Velvetleaf (velvetleaf; [3]) | Plant response rating, Velvetleaf (velvetleaf; [4]) | Velvetleaf plant response rating (velvetleaf; [5]) | Plant response rating, Velvetleaf (velvetleaf; [9]) | Wild oats plant response rating (wild oat; [1]) | Wild oats plant response rating (wild oat; [7]) | Wild oats plant response rating (wild oat; [2]) | Plant response rating, Wild oats (wild oat; [3]) | Plant response rating, Wild oats (wild oat; [9]) | Wild oats plant response rating (wild oat; [8]) | Rice plant response rating (rice; [10]) | Rice plant response rating (rice; [1]) | Plant response rating, Rice (rice; [11]) | Rice plant response rating (rice; [12]) | S. Flatsedge plant response rating (smallflower flatsedge; [10]) | S. Flatsedge plant response rating (smallflower flatsedge; [1]) | Plant response rating, S. Flatsedge (smallflower flatsedge; [11]) | S. Flatsedge plant response rating (smallflower flatsedge; [12]) | Ducksalad plant response rating (duck salad; [10]) | Ducksalad plant response rating (duck salad; [1]) | Ducksalad plant response rating (duck salad; [12]) | Ducksalad plant response rating (duck salad; [13]) | Barnyardgrass plant response rating (bamyardgrass; [1]) | Barnyardgrass plant response rating (bamyardgrass; Rate 125 g/ha, Postemergence section (flood test species), scale 0 to 10, 0 no effect, 10 complete control) | Barnyardgrass plant response rating (bamyardgrass; [12]) | Barnyardgrass plant response rating (bamyardgrass; [13])
6: Redroot pigweed plant response rating (pigweed; [5]) | Plant response rating, Redroot pigweed (pigweed; [9])
4: Crabgrass plant response rating (crabgrass; [8]) | Morningglory plant response rating (morningglory; [6]) | Morningglory plant response rating (morningglory; [8]) | Soybean plant response rating (soybean; [1]) | Soybean plant response rating (soybean; [7]) | Plant response rating, Soybean (soybean; [9]) | Soybean plant response rating (soybean; [8])
3: B. signalgrass plant response rating (surinam grass; [5]) | Cocklebur plant response rating (cocklebur; [7]) | Cocklebur plant response rating (cocklebur; [6]) | Morningglory plant response rating (morningglory; [1]) | Morningglory plant response rating (morningglory; [7]) | Plant response rating, Sugarbeets (sugar beet; [9]) | Sugarbeets plant response rating (sugar beet; [8]) | Wild oats plant response rating (wild oat; [5])
8: Plant response rating, Crabgrass (crabgrass; [4]) | Crabgrass plant response rating (crabgrass; [5])
2: Crabgrass plant response rating (crabgrass; [7]) | Crabgrass plant response rating (crabgrass; [6]) | Plant response rating, Crabgrass (crabgrass; [3]) | Redroot pigweed plant response rating (pigweed; [1]) | Plant response rating, Wild oats (wild oat; [4])
1: Cocklebur plant response rating (cocklebur; [1]) | Crabgrass plant response rating (crabgrass; [1])
5: Cocklebur plant response rating (cocklebur; [8]) | Redroot pigweed plant response rating (pigweed; [7])
